Several values for one entry are separate records, joined by “and”; a condition that tells them apart may be missing. Identical values can stand only once.
Columns and labels:
[1] = tested on: UWB1.289 + BRCA1 human ovarian cancer cell line; assay: MTT cytostatic-cytotoxic activity, UWB1.289+BRCA1; assay type: cell-based; settings: for IC50: kills 50% of the cells
Procedure: Human ovarian adenocarcinoma cells, derived from UBWB1,289, in which the presence of the BRCA1 gene has been restored. […] They are not susceptible to ionizing radiation and radioimmune chemical agents (e.g., alkylating agents). Also, UWB1.289 cells have mutated the p53 tumor suppressor gene, and are positive for the expression of cytokeratin 7 (CK-7), calretinin and Wilms' tumor protein (WT).
(§1) All cancer cell lines are stored in a liquid nitrogen tank in 2.5 ml cryovials (Corning-Costar, Cambridge, Mass.). DMSO (dimethylsulfoxide) act as a cryoprotectant and is added to prevent the formation of ice crystals which may lyse the cells. The Cells were grown as monolayer cultures in T-75 flasks (Corning-Costar, Cambridge, Mass.) and maintained at 37° C. in 5% CO2 incubator & 100% relative humidity. The cultures medium used are McCoy's 5a Medium, supplemented with 10% fetal bovine serum (FBS, Gibco) and 1% antibiotics (100 IU/ml penicillin/100 µg/ml streptomycin), sterilized by filtration (Corning-Costar filter, diameter 0.2 μm, RPMI-1640 and 50% RPMI-1640 (Catalog No 30-2001) plus 50% Mammary Epithelial Growth Medium (MEGM), supplemented with 10% fetal bovine serum (FBS, Gibco) and 1% antibiotics (100 IU/ml penicillin/100 μg/ml streptomycin). The passage is performed every 3-4 to days as follows: Cells are washed with sterile PBS (Phosphate buffered saline): 8 g/l NaCl, 0,2 g/l KCl, 1,15 g/l Na2HPO4καl 0,2 g/l KH2PO4. pH:7,4), add 2-3 ml 0.05% trypsin (Gibco 1:250) and 0.02% EDTA to cover the monolayer and incubate the flask at 3TC for 5-10 minutes. Trypsin-EDTA, is used mainly to detach the cells from the flask and prepare a single cell suspension. Finally, the number of cells can be determined by direct counting using a Neubauer chamber and cell viability is determined by staining the cells with trypan blue.
(§2) In the experimental study the in vitro effect of the compound type (I) was evaluated against ovarian cancer cell lines UWB1.289, UWB1.289+BRCA1 Kai SKOV-3.The cells were plated in 96-well plate (MTP) at a density of 1×10^4cells/m1 per well and maintained for 72 h at 3TC in a 5% CO2 incubator and grown as monolayers. The selection of the initial number of cells was made according to the rate of proliferation of the cell line, in order the cells throughout the experiment are in an exponential (log) growth phase. After 24 hours, cells were treated with 1-100 μmol/l of the tested compounds for 48 h. Experiments were carried out using triplicate wells. The viability of cultured cells was estimated by an (3-(4,5-imethylthiazol-2-yl)-2,5-diphenyltetrazolium bromide (MTT) metabolic assay as described previously (Finlay G J, Wilson W R and Baguley B C: Comparison of in vitro activity of cytotoxic drugs towards human carcinoma and leukaemia cell lines. Eur J Cancer Clin Oncol 22: 655-662, 1986; Alley M C, Scudiero D A, Monks A, Hursey M L, Czerwinski M J, Fine D L, et al. Feasibility of drug screening with panels of human tumor cell lines using a microculture tetrazolium assay. Cancer Res 1988; 48:589-601). MTT (Sigma, St Louis, Mo., USA) was dissolved in PBS in a concentration of 5 mg/ml, filter sterilized, and stored at 4° C. MTT (50 μl of stock solution) was added to each culture and incubated for 3 h at 3TC to allow metabolization. Formazan crystals were solubilized by DMSO (100 μl). Absorbance of the converted dye was measured at a wavelength of 540nm on ELISA reader (BioTek, Winooski, Vt., USA).
(§3) GI50: The mean concentration that causes 50% inhibition of cell growth (Growth Inhibition 50%). The calculation of the value is based on the formula: (Tt72x)−(Ct24)/(Ct72)-(Ct24)×100=50
(§4) TGI: The mean concentration that causes 100% inhibition of cell growth (Total Growth Inhibition). The value is calculated according to the formula: (Tt72x)−(Ct24)/(Ct72)−(Ct24)×100=0
(§5) IC50: The mean concentration that kills 50% of the cells (Inhibition Concentration 50%). The value is calculated according to the formula: (Tt72x)−(Ct24)/(Ct24)×100=[…]

[2] = tested on: OVCAR-3 human ovarian cancer cell line; assay: MTT cytostatic-cytotoxic activity, OVCAR-3; assay type: cell-based; settings: OVCAR-3, 48 h treatment; for IC50: kills 50% of the cells
Procedure: (§6) SKOV-3 (SKOV-3) (ATCC HTB 77) and OVCAR-3 (ATCC® HTB-161™)
(§7) Human ovarian adenocarcinoma cells, which are grown easily in monolayer culture with epithelial-like morphology. SKOV-3 are resistant to tumor necrosis factor (TNF) and to other cytotoxic drugs such as cisplatin, and adriamycin, while OVCAR-3 are resistant to adriamycin, cisplatin and melphalan. These cell lines express androgens, estrogens and progesterone receptors. When SKOV-3 or OVCAR-3 cells are subcutaneously implanted in nude mice, SCID mice, a moderately differentiated tumor develops, and the resulting model resembles primary ovarian adenocarcinoma in humans.
as §1, §2, §3
(§8) TGI: The mean concentration that causes 100% inhibition of cell growth (Total Growth Inhibition). […]

[3] = tested on: SKOV-3 human ovarian cancer cell line; assay: MTT cytostatic-cytotoxic activity, SKOV-3; assay type: cell-based; settings: for IC50: kills 50% of the cells
Procedure: as §6, §7, §1, §2, §3, §8

[4] = tested on: UWB1.289 human ovarian cancer cell line (mutant BRCA1); assay: MTT cytostatic-cytotoxic activity, UWB1.289; assay type: cell-based; settings: for IC50: kills 50% of the cells
Procedure: Also, UWB1.289 cells have mutated the p53 tumor suppressor gene and positive Wilms' tumor protein (WT) expression, have no functional BRCA1 gene and are positive for the expression of cytokeratin 7 (CK-7), calretinin and Wilms' tumor protein (WT). Finally they are sensitive to ionizing radiation.
as §1, §2, §3, §4, §5

[5] = tested on: MCF-7 human breast cancer cell line; assay: MTT cytostatic-cytotoxic activity, MCF-7; assay type: cell-based; settings: for IC50: kills 50% of the cells
[6] = tested on: T-47D human breast cancer cell line; assay: MTT cytostatic-cytotoxic activity, T-47D; assay type: cell-based; settings: 48 h treatment; for IC50: kills 50% of the cells
[7] = tested on: PC-3 human hormone-resistant prostate cancer cell line; assay: MTT cytostatic-cytotoxic activity, PC-3; assay type: cell-based; settings: PC-3, 48 h treatment; for IC50: kills 50% of the cells
[8] = tested on: MOLT-4 human acute T-leukemia cell line; assay: MTT cytostatic-cytotoxic activity, MOLT-4; assay type: cell-based; settings: MOLT-4, 48 h treatment; for IC50: kills 50% of the cells
[9] = tested on: A-549 human lung carcinoma cell line; assay: MTT cytostatic-cytotoxic activity, A-549; assay type: cell-based; settings: for IC50: kills 50% of the cells
C57BI/6 mice = assay: in vivo; settings: i.p., acute toxicity
Procedure: The acute toxicity of the compounds was assessed from lethality by testing different concentrations, starting at 100mg/kg. […] For intraperitoneal (i.p.) treatment, stock solutions of the tested compounds were prepared immediately before use. They were suspended in corn oil in the desired concentration following initial dissolution in 10% dimethylsulfoxide (DMSO). C57BI/6 male and female were used for toxicity studies. Mice were kept under conditions of constant temperature and humidity in sterile cages with water and food.

[10] = Homo sapiens, UWB1289, UWB1.289+BRCA1, 48 h treatment
[11] = Homo sapiens, SK-OV-3, SKOV-3, 48 h treatment
[12] = Homo sapiens, A549, A-549, 48 h treatment

Compound | TGI ([1]; UWB1.289+BRCA1, 48 h treatment) [µM] | TGI [2] [µM] | TGI ([3]; SKOV-3, 48 h treatment) [µM] | TGI ([4]; UWB1.289, 48 h treatment) [µM] | TGI ([5]; MCF-7, 48 h treatment) | GI50 [6] [µM] | TGI [6] | TGI [7] [µM] | TGI [8] [µM] | TGI ([9]; A-549, 48 h treatment) [µM] | GI50 ([1]; UWB1.289+BRCA1, 48 h treatment) [µM] | IC50 ([1]; UWB1.289+BRCA1, 48 h treatment) [µM] | GI50 [2] [µM] | IC50 [2] [µM] | GI50 ([3]; SKOV-3, 48 h treatment) [µM] | IC50 ([3]; SKOV-3, 48 h treatment) [µM] | GI50 ([4]; UWB1.289, 48 h treatment) [µM] | IC50 ([4]; UWB1.289, 48 h treatment) [µM] | GI50 ([5]; MCF-7, 48 h treatment) [µM] | IC50 ([5]; MCF-7, 48 h treatment) [µM] | other results
COc1cc(Cc2nnc3sc(-c4cccc(Cl)c4)nn23)c(S(=O)(=O)N(C)C)cc1OC [TS22, 3-[2-(N,N-dimethylsulfamoyl)-4,5-dimethoxybenzyl]-6-(3-chlorophenyl)-1,2,4-triazolo[3,4-b]-1,3,4-thiazole] | >100 | >100 | 100 | >100 | 90 µM and >100 µM | 60 | 97 µM and 100 µM | >100 | >100 | 95 |  |  |  |  |  |  |  |  |  |  | GI50 [1, 10]: 16 µM; IC50 [1, 10]: > 100 µM; GI50 ([2]; Homo sapiens): 90 µM; IC50 ([2]; Homo sapiens): > 100 µM; GI50 [3, 11]: 60 µM; IC50 [3, 11]: > 100 µM; IC50 ([4]; Homo sapiens, UWB1289, UWB1.289, 48 h treatment): > 100 µM; IC50 ([5]; Homo sapiens, MCF7, MCF-7, 48 h treatment): > 100 µM; GI50 ([6]; Homo sapiens, T47D, 48 h): 48 µM; IC50 ([6]; Homo sapiens, T47D): > 100 µM; GI50 ([7]; Homo sapiens): > 100 µM; IC50 ([7]; Homo sapiens): > 100 µM; GI50 ([8]; Homo sapiens): 72 µM; IC50 ([8]; Homo sapiens): > 100 µM; GI50 [9, 12]: 45 µM; IC50 [9, 12]: > 100 µM; melting point: 237 to 239 °C
COc1cc(Cc2nnc3sc(CC=Cc4ccccc4)nn23)c(S(=O)(=O)N(C)C)cc1OC [TS53, 3-[2-(N,N-dimethylsulfamoyl)-4,5-dimethoxybenzyl]-6-cinnamyl-1,2,4-triazolo[3,4-b]-1,3,4-thiazole] | 28 | 12 | 16 | 56 | 45 µM | 8 | 37 µM | 31 | 21 | 24 | 12 | 42 | 5 | 25 | 8 | 32 | 12 | > 100 | 15 | > 100 | IC50 [6]: > 100 µM; GI50 [7]: 12 µM; IC50 [7]: 85 µM; GI50 [8]: 4 µM; IC50 [8]: 36 µM; GI50 ([9]; A-549, 48 h treatment): 9 µM; IC50 ([9]; A-549, 48 h treatment): 58 µM; LD10 (C57BI/6 mice): >500 mg/kg; LD50 (C57BI/6 mice): 375 mg/kg
COc1cc(Cc2nnc3sc(-c4ccccn4)nn23)c(S(=O)(=O)N(C)C)cc1OC [TS66] | >100 | >100 | >100 | >100 | >100 µM | > 100 | >100 µM | >100 | >100 | >100 | > 100 | > 100 | 24 | > 100 | 20 | > 100 | > 100 | > 100 | > 100 | > 100 | IC50 [6]: > 100 µM; GI50 [7]: > 100 µM; IC50 [7]: > 100 µM; GI50 [8]: 85 µM; IC50 [8]: > 100 µM; GI50 ([9]; A-549, 48 h treatment): > 100 µM; IC50 ([9]; A-549, 48 h treatment): > 100 µM; LD10 (C57BI/6 mice): >500 mg/kg; LD50 (C57BI/6 mice): >500 mg/kg

Reference: patent US10513529B2, “1,2,4-triazolo-[3,4-b]-1,3,4-thiadiazole derivatives” (GALENICA S.A., priority 2016, dated 2019)
